Assay results: patent publication US11708346B2, “Treatment and prevention of neuropathic pain with P2Y14 antagonists” (Saint Louis University, priority 2019, dated 2023)
Values joined by “and” are separate entries in the source; they are usually repeats but may differ in a detail not shown here. Identical values can stand only once. “Also recorded” adds a separate entry of the source.

Key:
[1] = tested on: CCI-induced mechano-allodynia; test: Chronic constriction injury (CCI) of the sciatic nerve, mechano-allodynia by von Frey filaments; type: in vivo, mouse; conditions: for Effect at 0.5 h (% ± SD), percent inhibition of mechano-allodynia / Effect at 1 h (% + SD), percent inhibition of mechano-allodynia / Effect at 2 h (% ± SD), percent inhibition of mechano-allodynia / Effect at 3 h (% ± SD), percent inhibition of mechano-allodynia / Effect at 5 h (% ± SD), percent inhibition of mechano-allodynia / Reversal of CCI-induced mechano-allodynia / ED50: day 7 post-CCI; for Effect at 0.5 h (% ± SD), percent inhibition of mechano-allodynia / Effect at 1 h (% + SD), percent inhibition of mechano-allodynia / Effect at 2 h (% ± SD), percent inhibition of mechano-allodynia / Effect at 3 h (% ± SD), percent inhibition of mechano-allodynia / Effect at 5 h (% ± SD), percent inhibition of mechano-allodynia: n = 3; for Reversal of CCI-induced mechano-allodynia: ipsilateral hind paw; for ED50: Mus musculus, ip, read-out: ED50 at 1 h (95% CI), reversal of mechano-allodynia, 1 h post drug
Description: Chronic constriction injury (CCI) to the sciatic nerve was performed using the Bennett model. […] Then the animals were placed on a sterile surgical field and the skin was wiped with topical antiseptic, Dermachlor solution (0.2% chlorhexidine gluconate). […] A small incision was created on the lateral side of the left hind limb parallel to the femur. The sciatic nerve was exposed and ligated on two sites about 1 mm apart above the trifurcation using silk sutures 6.0. The incision was closed with clips and lidocaine cream was applied.
Mice were acclimated to the testing mesh-rack for 30 min before behavioral measurements. All behavioral testing was performed in the morning. The baseline measurements were determined on day 0 before CCI procedure. On day 7 post-CCI, baseline behavior responses were assessed, beginning prior to drug administration. Following drug injection, the behaviors were evaluated at multiple time points. Mechano-allodynia was quantified according to the hind paw withdrawal response to von Frey filaments stimulation by the Dixon up-and-down method. […] In presence of a positive withdrawal response a lighter filament was applied. If a negative response occurred, a stronger filament was used. At least four readings are obtained after the first positive response and the pattern of response was converted to a 50% paw withdrawal threshold (PWT), using the method described by Chaplan et al., J. Neurosci.
Data are expressed as mean±SD and analyzed by two-tailed, two-way repeated measures ANOVA with Dunnett's post hoc comparisons to day 7 behavior. The percentage of reversal of peak CCI-induced pain afforded by each drug was calculated for each animal using their baseline and day 7 post CCI behavioral measures. % Reversal=(PWT(g)t−PWT(g)day7)/PWT(g)day0−PWT(g)day7)×100, where PWT(g)=paw withdrawal threshold, t=time after drug. […] All statistical analyses were performed using GraphPad Prism 8 (Graph Pad Inc., San Diego, Calif.). Significance was accepted at p<0.05.

CB2 cannabinoid receptor = biological target: T1, CB2 cannabinoid receptor (Homo sapiens, UniProt P34972); test: PRESTO-Tango agonist/antagonist assay; type: cell-based
T1 construct: expressed in transfected cells
Description: (§1) Synthesis of 7 was performed using a Sonogashira reaction (11 to 12), click reaction (13 to 14) and a Suzuki reaction (15 to 16) followed by two-step deprotection. […].

CB1 cannabinoid receptor = biological target: T2, CB1 cannabinoid receptor (Homo sapiens, UniProt P21554); test: PRESTO-Tango agonist/antagonist assay; type: cell-based
T2 construct: expressed in transfected cells
Description: as §1

hP2Y14R = biological target: T3, hP2Y14R (Homo sapiens, UniProt Q15391); test: Competitive fluorescent binding assay in whole CHO-hP2Y14R cells, tracer 20, flow cytometry; conditions: read-out: Human P2Y14R binding affinity (IC50)
T3 construct: expressed in transfected cells; host or cells: CHO
T3 sequence (Q15391 1-338): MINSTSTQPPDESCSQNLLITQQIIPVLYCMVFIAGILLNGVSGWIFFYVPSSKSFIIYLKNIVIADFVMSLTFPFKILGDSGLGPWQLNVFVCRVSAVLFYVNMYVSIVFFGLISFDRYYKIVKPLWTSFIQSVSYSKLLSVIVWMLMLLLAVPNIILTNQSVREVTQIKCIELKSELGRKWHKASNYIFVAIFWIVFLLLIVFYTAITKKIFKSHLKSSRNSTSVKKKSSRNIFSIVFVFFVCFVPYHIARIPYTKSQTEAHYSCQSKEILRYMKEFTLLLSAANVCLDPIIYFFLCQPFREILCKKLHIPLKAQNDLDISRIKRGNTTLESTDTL

mP2Y14R = biological target: T4, mP2Y14R (Mus musculus, UniProt Q9ESG6); conditions: read-out: Mouse P2Y14R binding affinity (IC50); mP2Y14R in HEK293 cells, tracer 20
T4 sequence (Q9ESG6 1-338): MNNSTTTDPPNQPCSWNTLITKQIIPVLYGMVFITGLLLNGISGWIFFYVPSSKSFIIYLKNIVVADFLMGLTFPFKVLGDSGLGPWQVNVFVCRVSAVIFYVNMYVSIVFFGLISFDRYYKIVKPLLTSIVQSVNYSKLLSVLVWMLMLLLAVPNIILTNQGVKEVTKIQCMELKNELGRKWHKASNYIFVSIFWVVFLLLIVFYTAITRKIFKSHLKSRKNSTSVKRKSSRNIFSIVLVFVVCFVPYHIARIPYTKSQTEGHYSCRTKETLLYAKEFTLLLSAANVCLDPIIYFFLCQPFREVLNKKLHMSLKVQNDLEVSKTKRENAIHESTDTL

5HT1D = 5HT1D (Homo sapiens, UniProt P28221); test: PDSP off-target binding; conditions: ± SEM
Chain of 5HT1D (P28221 whole entry, species assumed): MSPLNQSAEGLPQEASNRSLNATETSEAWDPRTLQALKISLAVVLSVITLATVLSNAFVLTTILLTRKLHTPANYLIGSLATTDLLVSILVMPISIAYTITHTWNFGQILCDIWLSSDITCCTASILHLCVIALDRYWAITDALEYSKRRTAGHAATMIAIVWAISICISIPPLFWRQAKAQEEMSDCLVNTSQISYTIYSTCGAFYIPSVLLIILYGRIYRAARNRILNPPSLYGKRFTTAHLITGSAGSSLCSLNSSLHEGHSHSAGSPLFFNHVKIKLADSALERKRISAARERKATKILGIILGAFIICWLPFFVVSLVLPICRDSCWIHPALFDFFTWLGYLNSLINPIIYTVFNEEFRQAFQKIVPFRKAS

T1 sequence (P34972 whole entry): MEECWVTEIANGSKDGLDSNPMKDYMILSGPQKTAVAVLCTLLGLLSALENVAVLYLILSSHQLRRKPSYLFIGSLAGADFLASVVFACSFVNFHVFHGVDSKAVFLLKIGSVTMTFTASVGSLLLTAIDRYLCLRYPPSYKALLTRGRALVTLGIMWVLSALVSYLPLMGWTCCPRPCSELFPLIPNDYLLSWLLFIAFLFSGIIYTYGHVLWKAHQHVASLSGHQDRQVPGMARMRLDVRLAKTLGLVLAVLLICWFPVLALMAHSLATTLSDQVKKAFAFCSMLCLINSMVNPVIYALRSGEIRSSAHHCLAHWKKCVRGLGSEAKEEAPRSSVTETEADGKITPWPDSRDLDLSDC
T2 sequence (P21554 whole entry): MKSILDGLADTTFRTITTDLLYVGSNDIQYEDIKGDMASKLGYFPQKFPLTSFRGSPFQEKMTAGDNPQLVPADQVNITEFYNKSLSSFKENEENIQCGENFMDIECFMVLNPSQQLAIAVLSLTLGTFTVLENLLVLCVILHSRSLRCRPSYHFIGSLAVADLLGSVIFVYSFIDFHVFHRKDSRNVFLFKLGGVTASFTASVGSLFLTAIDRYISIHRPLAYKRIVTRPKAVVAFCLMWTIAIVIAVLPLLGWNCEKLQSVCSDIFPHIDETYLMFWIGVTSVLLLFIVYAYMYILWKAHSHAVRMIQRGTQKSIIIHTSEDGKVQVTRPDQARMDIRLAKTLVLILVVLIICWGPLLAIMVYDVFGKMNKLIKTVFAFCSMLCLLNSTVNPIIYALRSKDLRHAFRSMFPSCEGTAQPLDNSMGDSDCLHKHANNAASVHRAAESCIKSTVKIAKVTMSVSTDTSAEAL

Compound	Effect at 0.5 h (% ± SD), percent inhibition of mechano-allodynia ([1]; 10 μmol/kg, i.p.) [%]	Effect at 1 h (% + SD), percent inhibition of mechano-allodynia ([1]; 10 μmol/kg, i.p.)	Effect at 2 h (% ± SD), percent inhibition of mechano-allodynia ([1]; 10 μmol/kg, i.p.) [%]	Effect at 3 h (% ± SD), percent inhibition of mechano-allodynia ([1]; 10 μmol/kg, i.p.) [%]	Effect at 5 h (% ± SD), percent inhibition of mechano-allodynia ([1]; 10 μmol/kg, i.p.) [%]	Reversal of CCI-induced mechano-allodynia ([1]; 10 μmol/kg, i.p.)	IC50 (hP2Y14R) [nM]	IC50 (mP2Y14R) [nM]	further results
O=C(O)c1cc(-c2ccc(C3CCNCC3)cc2)c2ccc(-c3ccc(C(F)(F)F)cc3)cc2c1 [Compound 1, 4-[4-(piperidin-4-yl)phenyl]-7-[4-(rifluoromethyl)phenyl]-2-naphthoic acid]	87.9 ± 12.9	100% and 100 ± 0.0%	96.4 ± 6.2	78.6 ± 9.4	21.3 ± 14.1	fully efficacious; also recorded: reversed the allodynia	–	–	Effect at 0.5 h (% ± SD), percent inhibition of mechano-allodynia ([1]; 1 μmol/kg, i.p.): 10.0 ± 17.3%; Effect at 1 h (% + SD), percent inhibition of mechano-allodynia ([1]; 1 μmol/kg, i.p.): 19.9 ± 17.3%; Effect at 2 h (% ± SD), percent inhibition of mechano-allodynia ([1]; 1 μmol/kg, i.p.): 10.0 ± 17.3%; Effect at 3 h (% ± SD), percent inhibition of mechano-allodynia ([1]; 1 μmol/kg, i.p.): 4.7 ± 8.2%; Effect at 5 h (% ± SD), percent inhibition of mechano-allodynia ([1]; 1 μmol/kg, i.p.): 4.7 ± 8.2%; Effect at 0.5 h (% ± SD), percent inhibition of mechano-allodynia ([1]; 3 μmol/kg, i.p.): 62.9 ± 18.7%; Effect at 1 h (% + SD), percent inhibition of mechano-allodynia ([1]; 3 μmol/kg, i.p.): 79.3 ± 2.2%; Effect at 2 h (% ± SD), percent inhibition of mechano-allodynia ([1]; 3 μmol/kg, i.p.): 76.9 ± 6.3%; Effect at 3 h (% ± SD), percent inhibition of mechano-allodynia ([1]; 3 μmol/kg, i.p.): 64.7 ± 17.2%; Effect at 5 h (% ± SD), percent inhibition of mechano-allodynia ([1]; 3 μmol/kg, i.p.): 8.7 ± 15.1%; ED50 ([1]; i.p.): 1.6 µmol/kg; IC50 (CB2 cannabinoid receptor): > 50000 nM; IC50 (CB1 cannabinoid receptor): > 50000 nM
NCCOCCOCCOCCOCCOCCOCCC(=O)N1CCC(c2ccc(-c3cc(C(=O)O)cc4cc(-c5ccc(C(F)(F)F)cc5)ccc34)cc2)CC1 [Compound 21]	–	–	–	–	–	fully efficacious	–	–	Time of peak protection ([1]; 10 μmol/kg i.p., after injection): 1 to 2 h; Effect on paw withdrawal threshold at the contralateral hind paw ([1]; 10 μmol/kg, i.p., versus vehicle control): No effect
CCC(=O)N1CCC(c2ccc(-c3cc(C(=O)O)cc4cc(-c5ccc(C(F)(F)F)cc5)ccc34)cc2)CC1 [Compound 5, 4-(4-(1-(Propionyl)piperidin-4-yl)phenyl)-7-(4-(trifluoromethyl)phenyl)-2-naphthoic acid]	32.9 ± 5.7	77.2 ± 26.1%	71.6 ± 19.8	55.7 ± 27.1	5.6 ± 6.4	–	41.8 ± 1.8	38	–
C#CCCCCN1CCC(c2ccc(-c3cc(C(=O)O)cc4cc(-c5ccc(C(F)(F)F)cc5)ccc34)cc2)CC1 [Compound 3]	52.4 ± 23.3	75.9 ± 15.0%	42.7 ± 9.6	9.6 ± 16.7	0.0 ± 0.0	–	76.3 ± 24.4	130 ± 30	Ratio of protection at 3 h divided by the protection at 5 h (duration of action) ([1]; 10 μmol/kg i.p.): 0.13
O=C(O)c1cc(-c2ccc(C3CCNCC3)cc2)cc(-n2cc(-c3ccc(C(F)(F)F)cc3)nn2)c1 [Compound 6]	52.4 ± 9.6	67.4 ± 7.0%	57.2 ± 13.3	31.9 ± 16.8	12.7 ± 13.2	–	–	–	Effect at 0.5 h (% ± SD), percent inhibition of mechano-allodynia ([1]; 1 μmol/kg, i.p.): 8.7 ± 15.1%; Effect at 1 h (% + SD), percent inhibition of mechano-allodynia ([1]; 1 μmol/kg, i.p.): 18.7 ± 21.3%; Effect at 2 h (% ± SD), percent inhibition of mechano-allodynia ([1]; 1 μmol/kg, i.p.): 18.7 ± 21.3%; Effect at 3 h (% ± SD), percent inhibition of mechano-allodynia ([1]; 1 μmol/kg, i.p.): 8.7 ± 7.6%; Effect at 5 h (% ± SD), percent inhibition of mechano-allodynia ([1]; 1 μmol/kg, i.p.): 8.7 ± 15.1%; Effect at 0.5 h (% ± SD), percent inhibition of mechano-allodynia ([1]; 3 μmol/kg, i.p.): 44.6 ± 16.6%; Effect at 1 h (% + SD), percent inhibition of mechano-allodynia ([1]; 3 μmol/kg, i.p.): 53.3 ± 24.2%; Effect at 2 h (% ± SD), percent inhibition of mechano-allodynia ([1]; 3 μmol/kg, i.p.): 44.6 ± 16.6%; Effect at 3 h (% ± SD), percent inhibition of mechano-allodynia ([1]; 3 μmol/kg, i.p.): 35.6 ± 11.7%; Effect at 5 h (% ± SD), percent inhibition of mechano-allodynia ([1]; 3 μmol/kg, i.p.): 0.0 ± 0.0%; In vivo efficacy compared with a comparator compound ([1]; 10 μmol/kg i.p., 6 vs 7, 4 vs 1): no statistical difference; ED50 ([1]; i.p.): 3.5 µmol/kg
O=C(O)c1cc(O)c2ccc(-c3ccc(C(F)(F)F)cc3)cc2c1 [Compound 2]	23.4 ± 21.2	64.2 ± 24.9%	59.8 ± 18.1	35.2 ± 22.2	0.0 ± 0.0	reversed the allodynia	3200 ± 640	1600 ± 250	–
NCCCNC(=O)c1ccc(-c2cc(C(=O)O)cc(-n3cc(-c4ccc(C(F)(F)F)cc4)nn3)c2)s1 [Compound 8]	81.0 ± 6.9	91.5 ± 7.4%	74.0 ± 28.5	30.9 ± 21.0	10.0 ± 17.3	–	169 ± 42	384	Emax, in vivo efficacy ([1]; 10 μmol/kg i.p.): 91.5%; Ki (5HT1D): 6700 nM
